Results: ChEMBL document CHEMBL1201862, “PubChem BioAssay data set” (2004)
Activity calls are given as the source filed them. Cut-off read from the data, not from the text of the source, for most assays here: actives have a measured EC50 and inactives only a lower limit.

Tests used:
[1] = test system: BJ; test: cytotoxicity toward BJ-TERT-LT-ST fibroblasts, dose response, cell-based, RAS-independent, luminescence (AID 1935); type: functional; details: Homo sapiens;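 note: BJ fibroblasts immortalized with TERT plus LT and ST oncogenes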
[2] = test system: Streptococcus sp. 'group A'; test: growth inhibition of control SK(-) GAS strain, dose response, counter-screen for streptokinase expression inhibitor project, luminescence, kanamycin, BacTiterGlo, confirmation (AID 1900); type: functional, organism-based
[3] = cytotoxicity toward DRD oncogenic fibroblasts, dose response, cell-based, non-viral oncogenic, luminescence (AID 1934); type: functional; details: Homo sapiens
[4] = test system: BJ; test: cells; type: functional, cell-based; details: Homo sapiens
[5] = target: Heat shock protein HSP 90-alpha (Homo sapiens, UniProt P07900); type: functional, organism-based
[6] = target: Beta-galactosidase (Escherichia coli, UniProt Q8VNN2); test: PubChem AID 485352; type: functional
[7] = test system: BJ; test: cytotoxicity toward BJ-TERT fibroblasts, dose response, cell-based, RAS-independent, luminescence (AID 1933); type: functional; details: Homo sapiens
[8] = test system: Streptococcus; test: Group A Streptococcus viability loss, dose response, counter-screen for streptokinase expression inhibitor project, luminescence, BacTiterGlo (AID 1915); type: functional, organism-based;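 note: potency for reduction of bacterial viability or growth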
[9] = target: T1, Type-1 angiotensin II receptor (Homo sapiens, UniProt P30556); test: AT1 receptor antagonists, dose response, selectivity assay for APJ receptor antagonist project, cell-based, uHTS hits (AID 463214); type: functional;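 note: antagonist potency against angiotensin II stimulated AT1 response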
T1 sequence (P30556 whole entry): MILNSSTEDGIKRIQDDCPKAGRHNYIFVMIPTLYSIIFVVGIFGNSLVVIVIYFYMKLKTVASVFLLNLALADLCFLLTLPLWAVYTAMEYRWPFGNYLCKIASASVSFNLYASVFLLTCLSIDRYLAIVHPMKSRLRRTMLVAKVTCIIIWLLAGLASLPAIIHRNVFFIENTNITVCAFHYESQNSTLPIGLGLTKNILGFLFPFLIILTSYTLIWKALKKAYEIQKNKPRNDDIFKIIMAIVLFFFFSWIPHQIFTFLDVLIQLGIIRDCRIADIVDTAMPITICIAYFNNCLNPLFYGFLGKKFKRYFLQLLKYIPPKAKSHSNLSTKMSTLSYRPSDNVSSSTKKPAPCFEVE

[10] = target: T2, Fatty acid synthase (Homo sapiens, UniProt P49327); test: FAS thioesterase domain inhibitors, dose response, biochemical, endpoint fluorescence intensity, uHTS hits (AID 624327); type: functional;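 note: fluorescence from hydrolysis of an O-methyl fluorescein acyl ester substrate by the enzyme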
[11] = target: T3, Carboxy-terminal domain RNA polymerase II polypeptide A small phosphatase 1 (Homo sapiens, UniProt Q9GZU7); test: inhibitors of CTDSP1, concentration-response testing, biochemical assay, absorbance-based, actives from ultra-high-throughput screening (AID 540297); type: functional
T3 sequence (Q9GZU7 whole entry): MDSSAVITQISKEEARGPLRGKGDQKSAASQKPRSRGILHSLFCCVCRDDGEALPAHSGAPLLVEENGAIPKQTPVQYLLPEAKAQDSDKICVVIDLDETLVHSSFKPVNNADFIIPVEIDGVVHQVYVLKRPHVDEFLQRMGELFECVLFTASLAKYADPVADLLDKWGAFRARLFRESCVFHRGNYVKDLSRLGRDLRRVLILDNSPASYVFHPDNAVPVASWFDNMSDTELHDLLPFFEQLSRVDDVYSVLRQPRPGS

[12] = target: T2, Fatty acid synthase; test: FAS thioesterase domain inhibitors, dose response, biochemical, kinetic fluorescence intensity (AID 624326); type: functional;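 note: rate of fluorescence rise from hydrolysis of a fluorogenic O-methyl fluorescein ester substrate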

Sequence of Beta-galactosidase (Q8VNN2 whole entry): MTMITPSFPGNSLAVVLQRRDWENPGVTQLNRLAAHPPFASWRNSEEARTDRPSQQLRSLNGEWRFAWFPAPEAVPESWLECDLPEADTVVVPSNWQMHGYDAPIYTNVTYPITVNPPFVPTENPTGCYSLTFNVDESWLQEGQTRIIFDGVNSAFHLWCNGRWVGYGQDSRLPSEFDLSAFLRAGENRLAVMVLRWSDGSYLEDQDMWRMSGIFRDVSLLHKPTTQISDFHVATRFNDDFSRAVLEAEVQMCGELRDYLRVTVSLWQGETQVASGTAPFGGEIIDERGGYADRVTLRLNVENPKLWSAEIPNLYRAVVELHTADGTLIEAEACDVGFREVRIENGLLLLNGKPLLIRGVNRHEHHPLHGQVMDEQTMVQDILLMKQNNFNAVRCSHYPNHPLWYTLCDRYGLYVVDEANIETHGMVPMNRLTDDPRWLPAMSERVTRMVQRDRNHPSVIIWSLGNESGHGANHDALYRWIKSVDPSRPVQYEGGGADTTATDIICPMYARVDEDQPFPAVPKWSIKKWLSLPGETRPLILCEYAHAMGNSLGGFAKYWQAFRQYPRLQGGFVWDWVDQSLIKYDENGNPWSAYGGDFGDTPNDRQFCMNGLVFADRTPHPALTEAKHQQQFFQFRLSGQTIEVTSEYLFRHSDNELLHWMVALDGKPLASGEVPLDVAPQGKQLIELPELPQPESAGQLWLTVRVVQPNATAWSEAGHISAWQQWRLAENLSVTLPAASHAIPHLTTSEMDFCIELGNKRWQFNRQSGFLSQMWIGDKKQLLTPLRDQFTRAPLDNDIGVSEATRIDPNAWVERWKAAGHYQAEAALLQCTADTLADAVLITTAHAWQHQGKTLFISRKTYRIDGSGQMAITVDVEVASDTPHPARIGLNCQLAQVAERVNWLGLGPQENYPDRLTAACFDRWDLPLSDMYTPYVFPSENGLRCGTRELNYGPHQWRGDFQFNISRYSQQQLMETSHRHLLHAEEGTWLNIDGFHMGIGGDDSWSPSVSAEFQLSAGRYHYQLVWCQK
T2 sequence (P49327 whole entry, the tested form may be a part): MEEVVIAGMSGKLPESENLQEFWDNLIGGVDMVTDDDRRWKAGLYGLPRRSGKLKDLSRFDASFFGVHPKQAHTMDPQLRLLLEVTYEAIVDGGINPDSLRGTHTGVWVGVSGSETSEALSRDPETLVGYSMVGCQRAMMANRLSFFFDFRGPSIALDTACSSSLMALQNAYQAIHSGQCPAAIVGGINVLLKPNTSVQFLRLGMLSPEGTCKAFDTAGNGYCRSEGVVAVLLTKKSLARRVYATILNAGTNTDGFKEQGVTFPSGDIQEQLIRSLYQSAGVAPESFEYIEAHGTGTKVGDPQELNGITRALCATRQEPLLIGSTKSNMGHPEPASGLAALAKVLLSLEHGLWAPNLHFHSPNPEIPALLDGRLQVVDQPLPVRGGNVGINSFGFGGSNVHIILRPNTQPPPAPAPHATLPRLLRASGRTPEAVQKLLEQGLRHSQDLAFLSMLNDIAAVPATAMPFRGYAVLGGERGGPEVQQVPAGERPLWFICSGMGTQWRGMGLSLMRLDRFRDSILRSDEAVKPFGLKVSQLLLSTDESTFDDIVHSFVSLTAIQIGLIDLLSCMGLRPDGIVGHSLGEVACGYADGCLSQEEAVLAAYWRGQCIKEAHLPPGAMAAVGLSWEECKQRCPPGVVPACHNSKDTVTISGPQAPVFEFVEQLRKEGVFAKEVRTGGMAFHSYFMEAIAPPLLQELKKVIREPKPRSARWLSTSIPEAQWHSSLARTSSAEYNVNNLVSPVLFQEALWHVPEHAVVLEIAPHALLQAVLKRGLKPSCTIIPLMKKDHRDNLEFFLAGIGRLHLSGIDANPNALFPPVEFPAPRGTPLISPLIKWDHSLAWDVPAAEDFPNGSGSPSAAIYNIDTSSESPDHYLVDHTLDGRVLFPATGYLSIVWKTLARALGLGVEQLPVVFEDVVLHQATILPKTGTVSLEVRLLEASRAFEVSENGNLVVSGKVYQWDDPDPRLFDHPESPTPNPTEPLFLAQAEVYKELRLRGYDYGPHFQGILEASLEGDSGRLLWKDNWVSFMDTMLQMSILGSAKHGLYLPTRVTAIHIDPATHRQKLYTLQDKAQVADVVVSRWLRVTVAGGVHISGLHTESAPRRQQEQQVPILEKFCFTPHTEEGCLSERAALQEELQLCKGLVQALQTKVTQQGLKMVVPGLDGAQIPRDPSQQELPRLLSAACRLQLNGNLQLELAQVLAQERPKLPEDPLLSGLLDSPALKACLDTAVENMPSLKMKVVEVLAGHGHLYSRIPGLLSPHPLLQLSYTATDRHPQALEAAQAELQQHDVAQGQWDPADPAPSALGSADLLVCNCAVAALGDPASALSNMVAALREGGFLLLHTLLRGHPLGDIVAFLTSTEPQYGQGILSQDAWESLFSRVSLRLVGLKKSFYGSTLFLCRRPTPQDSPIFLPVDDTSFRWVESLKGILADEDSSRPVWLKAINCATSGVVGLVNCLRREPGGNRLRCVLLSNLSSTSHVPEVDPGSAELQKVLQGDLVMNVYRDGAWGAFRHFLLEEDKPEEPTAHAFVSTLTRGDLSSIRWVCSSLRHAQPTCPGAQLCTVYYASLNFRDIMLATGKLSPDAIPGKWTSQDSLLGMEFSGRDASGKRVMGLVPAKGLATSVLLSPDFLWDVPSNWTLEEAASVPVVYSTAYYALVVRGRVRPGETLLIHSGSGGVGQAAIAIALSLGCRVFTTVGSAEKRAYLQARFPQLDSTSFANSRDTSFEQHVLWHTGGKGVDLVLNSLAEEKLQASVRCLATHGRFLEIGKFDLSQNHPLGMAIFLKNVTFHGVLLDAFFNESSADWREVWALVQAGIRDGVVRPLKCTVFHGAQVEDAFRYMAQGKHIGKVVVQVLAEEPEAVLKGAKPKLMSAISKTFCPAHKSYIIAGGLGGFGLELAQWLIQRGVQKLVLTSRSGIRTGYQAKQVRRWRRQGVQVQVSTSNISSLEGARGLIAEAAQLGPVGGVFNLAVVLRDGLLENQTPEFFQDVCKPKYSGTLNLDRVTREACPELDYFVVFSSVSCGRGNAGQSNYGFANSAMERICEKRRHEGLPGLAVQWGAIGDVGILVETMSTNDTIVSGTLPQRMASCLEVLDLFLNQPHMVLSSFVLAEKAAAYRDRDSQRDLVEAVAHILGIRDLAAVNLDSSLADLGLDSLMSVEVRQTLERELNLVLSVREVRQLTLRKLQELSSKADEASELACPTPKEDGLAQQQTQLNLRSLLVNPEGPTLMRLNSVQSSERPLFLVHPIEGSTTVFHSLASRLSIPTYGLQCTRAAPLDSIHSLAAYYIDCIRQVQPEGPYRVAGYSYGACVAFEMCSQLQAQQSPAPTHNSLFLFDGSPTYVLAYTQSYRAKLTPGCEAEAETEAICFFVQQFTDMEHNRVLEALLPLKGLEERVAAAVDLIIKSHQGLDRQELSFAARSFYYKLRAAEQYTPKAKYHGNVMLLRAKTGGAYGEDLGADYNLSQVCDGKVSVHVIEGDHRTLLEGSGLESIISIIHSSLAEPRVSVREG

IC50 [10]	IC50 [11]	IC50 [12]	Compound	EC50 [1]	EC50 [2]	EC50 [3]	EC50 [4]	AC50 [5]	EC50 [6]	EC50 [7]	EC50 [8]	IC50 [9]
			Oc1cccc2ccc(/C=C/c3ccccc3Cl)nc12	> 150 µM (inconclusive)	0.345 µM (active)	32.6 µM (active)	28.5 µM (active)	11.6 µM (active)	> 40 µM (inactive)	12.9 µM (active)	1.3 µM (active)	32.3 µM (not active)
10 µM (active)	6.26 µM (active)	7.42 µM (active)	O=C(CCCC(=O)Nc1cccc(Br)c1)N/N=C/c1cc([N+](=O)[O-])ccc1O						> 40 µM (inactive)			> 40 µM (not active)
